These results are taken from publication PMC2832311 (Journal of medicinal chemistry, 2009).

The target in experiment [1] is T1, human 5-HT2C (INI) receptor (Homo sapiens, UniProt P28335).
T1 sequence (P28335 33-458): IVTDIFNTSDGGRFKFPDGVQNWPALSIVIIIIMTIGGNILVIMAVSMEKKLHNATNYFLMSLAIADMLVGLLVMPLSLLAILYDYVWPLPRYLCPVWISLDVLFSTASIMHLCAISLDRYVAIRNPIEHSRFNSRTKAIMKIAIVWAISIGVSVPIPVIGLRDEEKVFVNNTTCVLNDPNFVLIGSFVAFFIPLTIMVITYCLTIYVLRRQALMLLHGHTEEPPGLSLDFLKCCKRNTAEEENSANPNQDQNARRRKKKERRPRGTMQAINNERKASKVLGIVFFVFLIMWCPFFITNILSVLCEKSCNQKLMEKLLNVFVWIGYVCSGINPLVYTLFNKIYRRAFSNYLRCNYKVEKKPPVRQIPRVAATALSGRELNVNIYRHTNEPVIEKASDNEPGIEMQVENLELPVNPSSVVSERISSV
The experiment in a line: Calcium flux assay, 5-HT2C. The conditions noted are these: for 5-HT2C agonist efficacy (in words): calcium flux; for EC50: NA: Emax ≤ 12%; for Emax: read-out: 5-HT2C Emax, percent of maximal activation by 5-HT; for Selectivity 2A/2C / Selectivity 2B/2C: EC50 ratio. Background: Calcium flux is commonly read through the fluorescence of an indicator in the cells.

Experiment [2] has as its system MAO. To be noted: tryptamine potentiation model; cited from earlier work.
Experiment [3] deals with human 5-HT2A receptor (Homo sapiens, UniProt P28223). The experiment in a line: Calcium flux assay, 5-HT2A. To be noted: for EC50: 5-HT2A EC50, HEK-293, NA: Emax ≤ 12%; for Emax: read-out: 5-HT2A Emax, percent of maximal activation by 5-HT.
The target of experiment [4] is human 5-HT2B receptor (Homo sapiens, UniProt P41595). The experiment in a line: Calcium flux assay, 5-HT2B. To be noted: for EC50: 5-HT2B EC50, HEK-293, NA: Emax ≤ 12%; for Emax: read-out: 5-HT2B Emax, percent of maximal activation by 5-HT.
The subject of experiment [5] is C57BL/6J male mice. The experiment in a line: Mouse forced swim test. The class given is in vivo. The conditions noted are these: 30 min prior to testing.
[6] abbreviates: Table 2 section 1 (independent campaign).
Where [7] appears, read: Table 2 section 2 (independent campaign).
The mark [8] stands for this setting: 5-HT2C EC50, HEK-293, Table 2 section 1.
Where [9] appears, read: 5-HT2C EC50, HEK-293, Table 2 section 4.
The mark [10] stands for this setting: 5-HT2C EC50, HEK-293, Table 2 section 2.

Molecules are shown by their SMILES. Entries after “also recorded” stand apart in the source; their conditions may differ. Where two headings read alike, the source gives them in different places. Bounds are passed on as bounds.

Sequence of human 5-HT2B receptor (P41595 whole entry): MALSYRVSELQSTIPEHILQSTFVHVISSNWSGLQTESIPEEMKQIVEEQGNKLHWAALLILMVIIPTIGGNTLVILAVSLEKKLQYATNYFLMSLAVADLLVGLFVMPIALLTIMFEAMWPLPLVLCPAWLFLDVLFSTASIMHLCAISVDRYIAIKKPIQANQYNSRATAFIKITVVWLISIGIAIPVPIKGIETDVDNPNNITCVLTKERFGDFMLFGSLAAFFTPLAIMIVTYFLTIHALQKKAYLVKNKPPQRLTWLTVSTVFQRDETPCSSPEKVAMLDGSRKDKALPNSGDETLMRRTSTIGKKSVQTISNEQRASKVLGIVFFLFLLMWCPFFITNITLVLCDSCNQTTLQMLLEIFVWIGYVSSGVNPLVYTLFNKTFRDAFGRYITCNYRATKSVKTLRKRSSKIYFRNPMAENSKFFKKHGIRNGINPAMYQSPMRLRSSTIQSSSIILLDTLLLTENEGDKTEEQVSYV
Sequence of human 5-HT2A receptor (P28223 whole entry): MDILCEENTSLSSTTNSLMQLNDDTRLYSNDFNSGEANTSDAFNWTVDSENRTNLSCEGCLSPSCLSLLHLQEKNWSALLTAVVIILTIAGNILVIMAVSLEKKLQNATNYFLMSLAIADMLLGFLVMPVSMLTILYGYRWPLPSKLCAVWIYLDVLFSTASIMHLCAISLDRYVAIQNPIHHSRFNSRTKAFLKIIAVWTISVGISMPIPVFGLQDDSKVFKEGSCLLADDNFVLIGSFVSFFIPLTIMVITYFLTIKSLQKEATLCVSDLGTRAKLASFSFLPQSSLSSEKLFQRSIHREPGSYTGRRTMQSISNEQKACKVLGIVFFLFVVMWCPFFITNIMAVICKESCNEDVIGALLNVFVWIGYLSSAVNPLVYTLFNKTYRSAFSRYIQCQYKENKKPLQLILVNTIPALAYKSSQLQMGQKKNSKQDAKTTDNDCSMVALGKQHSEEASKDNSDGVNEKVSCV

For `N[C@@H]1C[C@H]1c1ccccc1` (racemic) [compound 9, tranylcypromine, reference compound], the “5-HT2C agonist efficacy (in words)” value in experiment [1] is “full agonists”.
For the compound `Cl.NC[C@@H]1C[C@H]1c1ccccc1` (relative stereo) [14a, trans-(2-Phenylcyclopropyl)methylamine Hydrochloride], the MAO inhibitory activity result in experiment [2] is “devoid of MAO inhibitory activity”. Moreover, in experiment [1], the “5-HT2C agonist efficacy (in words)” value was “full agonists”.
As to `CC(C)N[C@@H]1C[C@H]1c1ccccc1` (relative stereo) [compound 18, trans-N-Isopropyl-(2-phenylcyclopropyl)amine], in experiment [1] (5-HT2C EC50, HEK-293 stably transfected, Table 1 section 2), the EC50 (as a rule, the concentration at which the effect is half-maximal) was found to be 3420 nM. The maximal response (Emax) (commonly the size of the effect at its maximum, as opposed to the concentration needed) in experiment [1] (Table 1 section 2) is 18%.
For `Cl.NC[C@H]1C[C@@H]1c1ccccc1F` (relative stereo) [compound 27, trans-[2-(2-Fluorophenyl)cyclopropyl]methylamine Hydrochloride], the EC50 in experiment [3] (setting [6]) is greater than 1000 nM; in experiment [3] (setting [7]), 942 nM; in experiment [3] (Table 2 section 4 (independent campaign)) it was 681 nM; in experiment [4] (Table 2 section 1), 1550 nM; in experiment [4] (Table 2 section 2), 199 nM; in experiment [1] (setting [8]) it was 37 nM. The half-maximal effective concentration (EC50) in experiment [1] (setting [9]) is 33 nM. The maximum response (Emax) came to 79% in experiment [3] (Table 2 section 2); 62% in experiment [3] (Table 2 section 4); 89% in experiment [4] (Table 2 section 2); 84% in experiment [4] (Table 2 section 4); 94% in experiment [1] (Table 2 section 1). The “Selectivity 2A/2C” value in experiment [1] (Table 2 section 1) is on record as greater than 27; in experiment [1] (Table 2 section 2), 32. Besides, the “Selectivity 2B/2C” value in experiment [1] (Table 2 section 1) was found to be 42; in experiment [1] (Table 2 section 2), 6.8.
For `Cl.NC[C@H]1C[C@@H]1c1ccccc1Cl` (relative stereo) [compound 28, trans-[2-(2-Chlorophenyl)cyclopropyl]methylamine Hydrochloride], the results for the EC50 in experiment [3] (setting [6]), in experiment [4] (Table 2 section 1) and in experiment [1] (setting [10]) were 403 nM, 84 nM and 5.5 nM, respectively. For the same compound, the maximal response (Emax) in experiment [3] (Table 2 section 2) was determined as 87%; in experiment [1] (Table 2 section 1), 98%. For the same compound, the “Selectivity 2A/2C” value in experiment [1] (Table 2 section 1) is on record as 79. The “Selectivity 2B/2C” value in experiment [1] (Table 2 section 1) is recorded as 16.
On to `Cl.NC[C@@H]1C[C@H]1c1ccccc1Br` (relative stereo) [compound 29, trans-[2-(2-Bromophenyl)cyclopropyl]methylamine Hydrochloride], for which the EC50 in experiment [3] (setting [6]) worked out at 585 nM. In experiment [4] (Table 2 section 1), the half-maximal effective concentration (EC50) is 154 nM. The EC50 in experiment [1] (setting [8]) was determined as 2.8 nM. Besides, in experiment [1] (Table 2 section 1), the “Selectivity 2A/2C” value was found to be 206, the “Selectivity 2B/2C” value was 54 and the Emax was 93%.
In the case of `Cl.NC[C@H]1C[C@@H]1c1cccc(F)c1` (relative stereo) [compound 34, trans-[2-(3-Fluorophenyl)cyclopropyl]methylamine Hydrochloride], the concentration giving a half-maximal response (EC50) in experiment [3] (setting [6]) came to 1770 nM; in experiment [3] (setting [7]) it was 733 nM; in experiment [4] (Table 2 section 1), 51 nM; in experiment [4] (Table 2 section 2), 13 nM; in experiment [1] (setting [8]), 3.9 nM. Further, the Emax in experiment [3] (Table 2 section 4) is 73%; in experiment [4] (Table 2 section 1) it was 106%; in experiment [4] (Table 2 section 2), 96%; in experiment [1] (Table 2 section 2), 97%; in experiment [1] (Table 2 section 4), 96%. Also, the “Selectivity 2A/2C” value in experiment [1] (Table 2 section 1) is recorded as 450; in experiment [1] (Table 2 section 2), 225. Also, the “Selectivity 2B/2C” value in experiment [1] (Table 2 section 1) was determined as 13; in experiment [1] (Table 2 section 2), 4.0.
Turning to `Cc1cccc([C@H]2C[C@@H]2CN)c1.Cl` (relative stereo) [compound 37, trans-[2-(3-Methylphenyl)cyclopropyl]methylamine Hydrochloride], the “immobility time (in words)” value in experiment [5] (10–60 mg/kg i.p., vs vehicle) is recorded as “decreased immobility time; also recorded: significant decrease in immobility; also recorded: dose-dependent decrease in immobility time”.
Consider `Cl.NC[C@H]1C[C@@H]1c1ccc(F)cc1` (relative stereo) [compound 41, trans-[2-(4-Fluorophenyl)cyclopropyl]methylamine Hydrochloride], for which the 50% effective concentration (EC50) is 1100 nM in experiment [3] (setting [6]); 646 nM in experiment [3] (setting [7]); 312 nM in experiment [4] (Table 2 section 1); 57 nM in experiment [4] (Table 2 section 2); 8.4 nM in experiment [1] (setting [10]); 11 nM in experiment [1] (setting [9]). Also, the maximal effect (Emax) in experiment [3] (Table 2 section 2) is 80%; in experiment [3] (Table 2 section 4) it was 68%; in experiment [4] (Table 2 section 1), 95%; in experiment [1] (Table 2 section 4) it was 96%. Also, the “Selectivity 2A/2C” value in experiment [1] (Table 2 section 1) was 202; in experiment [1] (Table 2 section 2), 77. For the same compound, the “Selectivity 2B/2C” value in experiment [1] (Table 2 section 1) was found to be 57; in experiment [1] (Table 2 section 2) it was 6.8.
As for `Cl.NC[C@H]1C[C@@H]1c1ccc(C(F)(F)F)cc1` (relative stereo) [compound 45, trans-[2-(4-Trifluoromethylphenyl)cyclopropyl]methylamine Hydrochloride], in experiment [1] (Table 2 section 1), the “Selectivity 2B/2C” value was greater than 1.
`Cl.NC[C@H]1C[C@@H]1c1ccccc1` [(+)-14a, (+)-trans-(S,S)-(2-Phenylcyclopropyl)methylamine Hydrochloride]: the “5-HT2C agonist efficacy (in words)” value in experiment [1] is on record as “full agonists”.
As for `Cl.NC[C@@H]1C[C@H]1c1ccccc1` [(−)-14a, (−)-trans-(R,R)-(2-Phenylcyclopropyl)methylamine Hydrochloride], in experiment [1] (Table 1 section 2), the “Selectivity 2A/2C” value was greater than 10.
With `C[C@H]1CNCCc2ccc(Cl)cc21` [compound 7, (1R)-8-chloro-2,3,4,5-tetrahydro-1-methyl-1H-3-benzazepine, reference compound], the Emax in experiment [3] (Table 2 section 4) is 33%; in experiment [1] (Table 2 section 4), 96%.
As to `CN[C@H]1CC[C@@H](c2ccc(Cl)c(Cl)c2)c2ccccc21` [compound 92, sertraline, reference compound], the “immobility time (in words)” value in experiment [5] (10 mg/kg i.p., positive control, p < 0.001) is “significant decrease in immobility; also recorded: significantly reduced the immobility time”.
